What was measured:
Assay in all cases: KAM-matrix competition in K562 lysate;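 as to 0.001 uM KAM: median log10 fold change of treatment over DMSO control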;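 as to 0.01 uM KAM: median log10 fold change of treatment over DMSO control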;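 as to 0.1 uM KAM: median log10 fold change of treatment over DMSO control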;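 as to 1 uM KAM: median log10 fold change of treatment over DMSO control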;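 as to 10 uM KAM: median log10 fold change of treatment over DMSO control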
Type in all cases: binding
[1] = molecular target: T1, ADCK1 (Homo sapiens, UniProt Q86TW2);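 as to 0.001 uM KAM: median log10 fold change of treatment over DMSO control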;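 as to 0.01 uM KAM: median log10 fold change of treatment over DMSO control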;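 as to 0.1 uM KAM: median log10 fold change of treatment over DMSO control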;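 as to 1 uM KAM: median log10 fold change of treatment over DMSO control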;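 as to 10 uM KAM: median log10 fold change of treatment over DMSO control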
T1 construct: endogenous in cells; host or cells: K562
T1 sequence (Q86TW2 1-530): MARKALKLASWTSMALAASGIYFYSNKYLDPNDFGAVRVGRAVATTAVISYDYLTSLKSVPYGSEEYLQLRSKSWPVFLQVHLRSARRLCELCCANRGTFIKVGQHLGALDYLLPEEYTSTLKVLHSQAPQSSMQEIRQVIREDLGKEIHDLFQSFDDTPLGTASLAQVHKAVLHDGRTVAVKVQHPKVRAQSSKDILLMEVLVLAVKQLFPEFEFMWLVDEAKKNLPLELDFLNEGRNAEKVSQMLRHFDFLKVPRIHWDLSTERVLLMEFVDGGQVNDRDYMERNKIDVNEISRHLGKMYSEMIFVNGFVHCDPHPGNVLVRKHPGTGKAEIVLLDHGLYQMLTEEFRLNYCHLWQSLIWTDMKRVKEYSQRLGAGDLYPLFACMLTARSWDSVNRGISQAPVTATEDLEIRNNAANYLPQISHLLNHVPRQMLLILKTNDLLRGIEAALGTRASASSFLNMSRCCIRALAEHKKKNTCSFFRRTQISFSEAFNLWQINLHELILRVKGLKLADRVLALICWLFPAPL
Experimental: (§1) Supplement 12953_2017_125_MOESM1_ESM.zip/MS_Supp Info.xlsx, sheet "KAM" | column: 10 uM KAM; 1 uM KAM; 0.1 uM KAM; 0.01 uM KAM; 0.001 uM KAM; RB50

[2] = molecular target: T2, JAK2 (Homo sapiens, UniProt O60674)
T2 construct: endogenous in cells; host or cells: K562
Experimental: as §1

[3] = molecular target: T3, NEK1 (Homo sapiens, UniProt Q96PY6)
T3 construct: endogenous in cells; host or cells: K562
T3 sequence (Q96PY6 1-1258): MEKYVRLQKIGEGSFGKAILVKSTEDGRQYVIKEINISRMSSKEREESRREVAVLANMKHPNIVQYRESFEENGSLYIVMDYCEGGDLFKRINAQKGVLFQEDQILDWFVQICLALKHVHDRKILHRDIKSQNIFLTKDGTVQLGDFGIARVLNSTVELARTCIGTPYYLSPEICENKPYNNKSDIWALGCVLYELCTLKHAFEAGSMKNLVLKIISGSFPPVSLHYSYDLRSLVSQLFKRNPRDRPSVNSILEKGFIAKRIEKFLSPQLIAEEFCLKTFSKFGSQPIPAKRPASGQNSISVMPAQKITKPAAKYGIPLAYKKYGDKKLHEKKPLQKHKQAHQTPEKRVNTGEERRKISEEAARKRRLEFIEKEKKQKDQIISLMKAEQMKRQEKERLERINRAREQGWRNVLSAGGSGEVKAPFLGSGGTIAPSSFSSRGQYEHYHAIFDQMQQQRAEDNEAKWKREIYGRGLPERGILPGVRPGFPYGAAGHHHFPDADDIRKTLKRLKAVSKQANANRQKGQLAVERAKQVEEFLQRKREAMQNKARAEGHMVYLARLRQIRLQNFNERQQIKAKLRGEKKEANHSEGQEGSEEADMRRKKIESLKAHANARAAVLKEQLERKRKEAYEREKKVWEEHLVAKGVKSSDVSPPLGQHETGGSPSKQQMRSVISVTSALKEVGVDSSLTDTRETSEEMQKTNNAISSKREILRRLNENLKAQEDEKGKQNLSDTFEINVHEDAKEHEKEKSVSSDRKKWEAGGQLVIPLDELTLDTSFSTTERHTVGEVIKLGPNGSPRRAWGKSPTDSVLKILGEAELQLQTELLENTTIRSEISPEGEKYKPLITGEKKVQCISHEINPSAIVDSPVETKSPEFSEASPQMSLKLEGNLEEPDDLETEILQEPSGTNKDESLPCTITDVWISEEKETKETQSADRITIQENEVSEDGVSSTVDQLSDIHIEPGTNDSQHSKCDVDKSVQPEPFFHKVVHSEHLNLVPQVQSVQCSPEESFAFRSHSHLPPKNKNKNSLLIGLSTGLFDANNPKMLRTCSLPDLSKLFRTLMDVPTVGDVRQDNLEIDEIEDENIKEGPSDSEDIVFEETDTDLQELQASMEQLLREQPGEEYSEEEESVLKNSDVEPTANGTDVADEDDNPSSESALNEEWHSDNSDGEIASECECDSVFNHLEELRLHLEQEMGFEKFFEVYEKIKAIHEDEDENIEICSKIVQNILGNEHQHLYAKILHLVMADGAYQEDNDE
Experimental: as §1

[4] = molecular target: T4, OBSCN (Homo sapiens, UniProt Q5VST9);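 as to 0.001 uM KAM: median log10 fold change of treatment over DMSO control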;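 as to 0.01 uM KAM: median log10 fold change of treatment over DMSO control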;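 as to 0.1 uM KAM: median log10 fold change of treatment over DMSO control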;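 as to 1 uM KAM: median log10 fold change of treatment over DMSO control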;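 as to 10 uM KAM: median log10 fold change of treatment over DMSO control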
T4 construct: endogenous in cells; host or cells: K562
Experimental: as §1

[5] = molecular target: T5, RPS6KB1 (Homo sapiens, UniProt P23443);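 as to 0.001 uM KAM: median log10 fold change of treatment over DMSO control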;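 as to 0.01 uM KAM: median log10 fold change of treatment over DMSO control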;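 as to 0.1 uM KAM: median log10 fold change of treatment over DMSO control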;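 as to 1 uM KAM: median log10 fold change of treatment over DMSO control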;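 as to 10 uM KAM: median log10 fold change of treatment over DMSO control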
T5 construct: endogenous in cells; host or cells: K562
Experimental: as §1

[6] = molecular target: T6, VRK1 (Homo sapiens, UniProt Q99986);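 as to 0.001 uM KAM: median log10 fold change of treatment over DMSO control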;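 as to 0.01 uM KAM: median log10 fold change of treatment over DMSO control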;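 as to 0.1 uM KAM: median log10 fold change of treatment over DMSO control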;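 as to 1 uM KAM: median log10 fold change of treatment over DMSO control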;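 as to 10 uM KAM: median log10 fold change of treatment over DMSO control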
T6 construct: endogenous in cells; host or cells: K562
T6 sequence (Q99986 1-396): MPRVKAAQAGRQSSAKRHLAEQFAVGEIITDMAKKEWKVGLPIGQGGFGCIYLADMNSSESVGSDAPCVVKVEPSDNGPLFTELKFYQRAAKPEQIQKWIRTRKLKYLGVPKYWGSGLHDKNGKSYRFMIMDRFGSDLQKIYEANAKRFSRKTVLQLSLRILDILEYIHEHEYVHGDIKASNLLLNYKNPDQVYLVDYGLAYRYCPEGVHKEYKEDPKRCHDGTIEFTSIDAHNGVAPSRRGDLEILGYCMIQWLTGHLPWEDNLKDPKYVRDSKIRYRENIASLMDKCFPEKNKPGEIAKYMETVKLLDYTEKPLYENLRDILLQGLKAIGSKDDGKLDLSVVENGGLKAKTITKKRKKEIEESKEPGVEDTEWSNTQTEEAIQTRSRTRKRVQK
Experimental: as §1

[7] = KAM 0.001-10 uM, read-out: RB50 (the source's name)
[8] = read-out: RB50 (the source's name)

T5 sequence (P23443 whole entry): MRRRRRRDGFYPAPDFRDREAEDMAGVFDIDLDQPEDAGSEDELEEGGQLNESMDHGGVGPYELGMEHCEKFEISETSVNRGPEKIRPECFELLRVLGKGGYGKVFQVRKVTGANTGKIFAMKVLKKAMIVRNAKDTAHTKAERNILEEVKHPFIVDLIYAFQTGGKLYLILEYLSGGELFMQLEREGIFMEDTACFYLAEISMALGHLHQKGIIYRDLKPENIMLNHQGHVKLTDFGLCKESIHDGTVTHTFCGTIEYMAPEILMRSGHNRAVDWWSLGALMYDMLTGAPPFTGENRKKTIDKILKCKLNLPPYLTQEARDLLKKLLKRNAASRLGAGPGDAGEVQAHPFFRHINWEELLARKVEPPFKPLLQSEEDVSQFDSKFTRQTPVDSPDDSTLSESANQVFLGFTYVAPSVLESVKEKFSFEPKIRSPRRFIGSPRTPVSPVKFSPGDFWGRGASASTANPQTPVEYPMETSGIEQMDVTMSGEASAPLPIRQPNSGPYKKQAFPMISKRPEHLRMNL
T2 sequence (O60674 whole entry): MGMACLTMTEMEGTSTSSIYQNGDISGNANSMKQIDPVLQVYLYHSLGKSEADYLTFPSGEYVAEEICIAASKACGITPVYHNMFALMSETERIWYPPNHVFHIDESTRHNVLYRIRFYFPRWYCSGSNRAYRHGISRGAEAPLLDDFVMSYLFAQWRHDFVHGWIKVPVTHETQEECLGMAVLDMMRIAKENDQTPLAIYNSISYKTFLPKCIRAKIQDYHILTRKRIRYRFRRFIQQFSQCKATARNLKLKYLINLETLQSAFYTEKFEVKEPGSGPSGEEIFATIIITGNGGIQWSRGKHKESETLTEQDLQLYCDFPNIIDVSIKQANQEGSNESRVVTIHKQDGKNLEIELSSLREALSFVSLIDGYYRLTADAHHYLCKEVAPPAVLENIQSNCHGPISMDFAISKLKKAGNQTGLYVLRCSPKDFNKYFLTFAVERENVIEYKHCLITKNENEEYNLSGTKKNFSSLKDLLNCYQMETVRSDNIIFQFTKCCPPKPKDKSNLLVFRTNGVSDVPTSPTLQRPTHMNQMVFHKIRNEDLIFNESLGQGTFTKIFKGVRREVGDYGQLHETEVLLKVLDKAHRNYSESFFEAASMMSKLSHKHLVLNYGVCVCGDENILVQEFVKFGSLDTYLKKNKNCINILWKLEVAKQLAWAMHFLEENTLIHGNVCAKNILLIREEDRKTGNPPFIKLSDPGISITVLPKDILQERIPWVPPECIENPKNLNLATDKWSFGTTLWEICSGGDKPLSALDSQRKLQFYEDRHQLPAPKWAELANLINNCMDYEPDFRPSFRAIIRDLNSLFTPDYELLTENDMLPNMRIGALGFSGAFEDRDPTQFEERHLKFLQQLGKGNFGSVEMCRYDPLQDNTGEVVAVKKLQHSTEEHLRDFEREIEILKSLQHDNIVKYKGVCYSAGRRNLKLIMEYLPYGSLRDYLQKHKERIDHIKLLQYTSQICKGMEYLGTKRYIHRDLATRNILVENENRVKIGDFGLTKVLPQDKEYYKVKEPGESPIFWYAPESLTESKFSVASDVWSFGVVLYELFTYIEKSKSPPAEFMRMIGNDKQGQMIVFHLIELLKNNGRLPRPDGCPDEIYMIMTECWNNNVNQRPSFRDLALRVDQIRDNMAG

N#CCc1ccc(Nc2nc(NCCCN)cc(Nc3cc(C4CC4)[nH]n3)n2)cc1 [KAM]
IC50 [1, 7]: > 10 µM | 0.001 uM KAM ([1]; relative to 0 uM KAM = 0): -0.001358 | 0.01 uM KAM ([1]; relative to 0 uM KAM = 0): -0.0336 | 0.1 uM KAM ([1]; relative to 0 uM KAM = 0): -0.06203 | 1 uM KAM ([1]; relative to 0 uM KAM = 0): -0.1949 | 10 uM KAM ([1]; relative to 0 uM KAM = 0): -0.2595 | median Log10 fold change ([2]; 0.001 uM KAM): -0.002638 | median Log10 fold change ([2]; 0.01 uM KAM): -0.00181 | median Log10 fold change ([2]; 0.1 uM KAM): -0.159 | median Log10 fold change ([2]; 1 uM KAM): -0.3349 | median Log10 fold change ([2]; 10 uM KAM): -0.4311 | IC50 [2, 8]: 0.909 µM | median Log10 fold change ([3]; 0.001 uM KAM): -0.02178 | median Log10 fold change ([3]; 0.01 uM KAM): -0.02485 | median Log10 fold change ([3]; 0.1 uM KAM): -0.1728 | median Log10 fold change ([3]; 1 uM KAM): -0.239 | median Log10 fold change ([3]; 10 uM KAM): -0.318 | IC50 [3, 8]: 3.39 µM | IC50 [4, 7]: > 10 µM | 0.001 uM KAM ([4]; relative to 0 uM KAM = 0): -0.03363 | 0.01 uM KAM ([4]; relative to 0 uM KAM = 0): 0.02355 | 0.1 uM KAM ([4]; relative to 0 uM KAM = 0): -0.066 | 1 uM KAM ([4]; relative to 0 uM KAM = 0): -0.08935 | 10 uM KAM ([4]; relative to 0 uM KAM = 0): -0.04979 | IC50 [5, 7]: > 10 µM | 0.001 uM KAM ([5]; relative to 0 uM KAM = 0): 0.05992 | 0.01 uM KAM ([5]; relative to 0 uM KAM = 0): 0.07406 | 0.1 uM KAM ([5]; relative to 0 uM KAM = 0): 0.2008 | 1 uM KAM ([5]; relative to 0 uM KAM = 0): 0.1222 | 10 uM KAM ([5]; relative to 0 uM KAM = 0): 0.1654 | IC50 [6, 7]: > 10 µM | 0.001 uM KAM ([6]; relative to 0 uM KAM = 0): 0.05319 | 0.01 uM KAM ([6]; relative to 0 uM KAM = 0): 0.02372 | 0.1 uM KAM ([6]; relative to 0 uM KAM = 0): 0.08305 | 1 uM KAM ([6]; relative to 0 uM KAM = 0): 0.1248 | 10 uM KAM ([6]; relative to 0 uM KAM = 0): 0.03089

From publication PMC5513037, “Examining the influence of specificity ligands and ATP-competitive ligands on the overall effectiveness of bivalent kinase inhibitors” (Proteome Science, 2017)
